Results reported in patent publication US20260101892A1, “METHOD TO INHIBIT PROLIFERATION OF A PHYTOPATHOGEN ON PLANTS AND COMPOSITIONS USED FOR THIS PURPOSE” (CYSBIO APS, priority 2022, published 2026).
Read-outs that look alike come from different tables or passages of the source. Marks after values point to notes of the source that are not given here.

How the values were obtained:
E. coli [1] = conditions: cited from earlier work; for Planktonic growth A600/min (×10^−3): LB medium, 30° C., 24 hours; for Planktonic growth Reduction (%): (compound − control) × 100 / control, negative = reduction; for biocidal effect: at the concentrations tested by Catto et al. (0.183-1830 μM)
E. coli [2] = conditions: cited from earlier work; for Cell adhesion Reduction (%): (compound − control) × 100 / control, negative = reduction; for anti-biofilm activity (cell adhesion): at the concentrations tested by Catto et al. (0.183-1830 μM)
Alternaria alternata = experiment: Post-harvest preservation of capsicums; type: in vivo; conditions: capsicums sprayed twice, 10° C., followed 25 days, triplicate
Protocol: To investigate if zosteric acid and/or coumaric acid can protect fruit and vegetables against post-harvest infection with different fungi, zosteric and coumaric acids fungicidal effect was tested in capsicums and lemons infected with Alternaria alternata and Penicillium digitatum, respectively. The tests were performed by acquiring the relevant fruit and vegetables from the local supermarket. Both fruit and vegetables were bought as organic produce to ensure a minimum of pesticides had already been applied. […] Each application treatment was performed in triplicate on three separate pieces of produce. After treatment, the produce was allowed to dry in a sterile laminar flow cabinet followed by a second round of application and drying. The produce was then inoculated with the relevant fungal spores using a grafting stick. […] The inoculated produce was subsequently placed in […] plastic bags to prevent contamination with other organisms and to prevent the produce from drying out due to air circulation in the incubator. The wrapped capsicums and lemons were placed at 10° C. and the fungal growth followed by measuring the diameter of the growth from the point of inoculation for 25 days.

[3] = tested on: European grapes (Vitis vinifera); experiment: Phytotoxicity evaluation in the grapevine downy mildew trial; conditions: 5% treatment, Example 9 trial

Row | SMILES | Planktonic growth A600/min (×10^−3) (E. coli [1]; 0.183 μM) | Planktonic growth Reduction (%) (E. coli [1]; 0.183 μM) | Planktonic growth A600/min (×10^−3) (E. coli [1]; 1.83 μM) | Planktonic growth Reduction (%) (E. coli [1]; 1.83 μM) | Planktonic growth A600/min (×10^−3) (E. coli [1]; 18.3 μM) | Planktonic growth Reduction (%) (E. coli [1]; 18.3 μM) | Planktonic growth A600/min (×10^−3) (E. coli [1]; 183 μM) | Planktonic growth Reduction (%) (E. coli [1]; 183 μM) | Planktonic growth A600/min (×10^−3) (E. coli [1]; 1830 μM) | Planktonic growth Reduction (%) (E. coli [1]; 1830 μM) | Cell adhesion Reduction (%) (E. coli [2]; 0.183 μM) | Cell adhesion N. adhered cells (×10^7) (E. coli [2]; 0.183 μM) | Cell adhesion Reduction (%) (E. coli [2]; 1.83 μM) | Cell adhesion N. adhered cells (×10^7) (E. coli [2]; 1.83 μM) | Cell adhesion Reduction (%) (E. coli [2]; 18.3 μM) | Cell adhesion N. adhered cells (×10^7) (E. coli [2]; 18.3 μM) | Cell adhesion Reduction (%) (E. coli [2]; 183 μM) | Cell adhesion N. adhered cells (×10^7) (E. coli [2]; 183 μM) | Cell adhesion Reduction (%) (E. coli [2]; 1830 μM) | Cell adhesion N. adhered cells (×10^7) (E. coli [2]; 1830 μM) | other results
1 | O=C(O)/C=C/c1ccc(O)cc1 [Trans-coumaric acid, trans-coumaric acid] | 1.31 ± 0.03ab A600/min (×10^−3) | 2.06 | 1.26 ± 0.04abc A600/min (×10^−3) | −1.72 | 1.23 ± 0.02abc A600/min (×10^−3) | −3.99 | 1.23 ± 0.06abc A600/min (×10^−3) | −3.87 | 0.97 ± 0.04e A600/min (×10^−3) | −24.17 | 19.37 | 2.29 ± 0.16b ×10^7 | −46.05 | 1.03 ± 0.14ce ×10^7 | −25.80 | 1.42 ± 0.24de ×10^7 | −22.36 | 1.49 ± 0.14de ×10^7 | −36.38 | 1.22 ± 0.27cde ×10^7 | biocidal effect (E. coli [1]): displays both biocidal and antibiofilm effect; anti-biofilm activity (cell adhesion) (E. coli [2]): displays both biocidal and antibiofilm effect
2 | O=C(O)/C=C\c1ccc(OS(=O)(=O)O)cc1 [Cis zosteric acid, cis-zosteric acid] | 1.31 ± 0.13^a A600/min (×10^−3) | 2.28 | 1.31 ± 0.01^a A600/min (×10^−3) | 1.66 | 1.31 ± 0.03^a A600/min (×10^−3) | 2.24 | 1.24 ± 0.03^a A600/min (×10^−3) | −3.39 | 1.22 ± 0.03^a A600/min (×10^−3) | −4.98 | 98.02 | 3.79 ± 0.61^c ×10^7 | 92.49 | 3.69 ± 0.41^c ×10^7 | 84.50 | 3.54 ± 0.20^c ×10^7 | 9.90 | 2.11 ± 0.14^bd ×10^7 | 124.16 | 4.30 ± 1.01^c ×10^7 | biocidal effect (E. coli [1]): no biocidal nor anti-biofilm activity; anti-biofilm activity (cell adhesion) (E. coli [2]): no biocidal nor anti-biofilm activity; anti-biofilm activity (cell adhesion) (E. coli [2]; listed as cis-isomer of zosteric acid): no activity
3 | O=C(O)/C=C/c1ccc(O)cc1 [coumaric acid] |  |  |  |  |  |  |  |  |  |  |  |  |  |  |  |  |  |  |  |  | time after inoculation until A. alternata growth was displayed (Alternaria alternata): 25 days; phytotoxicity [3]: 23.5%
4 | O=C(O)/C=C\c1ccccc1 [Cis-cinnamic acid, cis-cinnamic acid] | 1.32 ± 0.04^ab A600/min (×10^−3) | 2.71 | 1.28 ± 0.07^ab A600/min (×10^−3) | −0.56 | 1.30 ± 0.03^ab A600/min (×10^−3) | 1.27 | 1.24 ± 0.05^a A600/min (×10^−3) | −3.17 | 0.88 ± 0.02^c A600/min (×10^−3) | −31.64 | 28.52 | 2.46 ± 0.17^b ×10^7 | 23.00 | 2.36 ± 0.26^b ×10^7 | −29.61 | 1.35 ± 0.28^b ×10^7 | 164.82 | 5.08 ± 0.53^c ×10^7 | 183.29 | 5.43 ± 0.76^c ×10^7 | anti-biofilm activity (cell adhesion) (E. coli [2]): promotes biofilm formation at all concentrations tested
